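Protocol summary: plate cells (96-well), add compound at 5 concentrations, incubate 48 h, interpolate endpoints linearly. Abbreviation: GI50, concentration required for 50% inhibition of growth.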 The source made the active and inactive calls. No stated cut-off is given here; in the data, active = GI50 up to about 1.1 µM and inactive = higher. Starred links: 1 amine or outer side, 2 acyl side, 3 side chain; linkers in the order of their positions; H or OH if unused. Non-standard residues stand in square brackets, D forms with d. Residues, ends and D or L forms follow the SMILES beside them. X4 = C[C@H](N[*:1])C(=O)C(C)(C)C(=O)[*:2]; Hmpa(2S,3S) = CC[C@H](C)[C@H](O)C(=O)O; NMeY = CN[C@@H](Cc1ccc(O)cc1)C(=O)O; NMeL = CN[C@@H](CC(C)C)C(=O)O; NMeV = CN[C@H](C(=O)O)C(C)C; βAla = NCCC(=O)O
Columns and labels:
Experiment in all cases: growth of human tumour cells (NCI), 48 h
[1] = system: EKVX
[2] = system: SF-268
[3] = system: OVCAR-8
[4] = system: NCI-H226
[5] = system: CCRF-CEM
[6] = system: SW-620
[7] = system: COLO 205
[8] = system: MDA-MB-435
[9] = system: OVCAR-4
[10] = system: SN12C
[11] = system: MCF7
[12] = system: SK-MEL-5
[13] = system: KM12
[14] = system: NCI-H522
[15] = system: NCI-H460
[16] = system: 786-0
[17] = system: HT-29
[18] = system: HCC 2998
[19] = system: HOP-62
[20] = system: SK-MEL-2

Measured: GI50

COc1cc(C(=O)Oc2c(C#N)sc3c2c(=O)n(-c2ccccc2)c(=S)n3-c2ccccc2)cc(OC)c1OC
active: [14] 0.361 µM
inactive: [1] 19.3 µM | [2] 14.3 µM | [3] 10.9 µM | [4] 4.73 µM | [5] 4.72 µM | [6] 24.2 µM | [7] 15.8 µM | [8] 15.1 µM | [9] 26.4 µM | [10] 13.8 µM | [11] 22.9 µM | [12] 17.3 µM | [13] 18.9 µM | [15] 21.9 µM | [16] 15.2 µM | [17] 3.4 µM | [18] 19.6 µM | [19] 19.5 µM

O=C(O)CCN1CCN(CCC(=O)O)CCN(CCC(=O)O)CC1
inactive: [1] > 100 µM | [3] > 100 µM | [4] > 100 µM | [5] > 100 µM | [6] 44.4 µM | [7] 92.7 µM | [8] > 100 µM | [9] > 100 µM | [10] > 100 µM | [11] 98.2 µM | [12] 74 µM | [13] 69.7 µM | [14] > 100 µM | [15] 56.2 µM | [16] 79.6 µM | [20] > 100 µM | [17] 53.6 µM | [18] > 100 µM | [19] > 100 µM

Cc1c2c(OCC3CCCCO3)nn(C)c(=O)c2c(C)n1-c1ccccc1 (centres undefined)
inactive: [1] 17.1 µM | [2] 16.1 µM | [3] 19.9 µM | [4] 23.4 µM | [7] 17.4 µM | [8] 18.3 µM | [9] 15.8 µM | [10] 19.4 µM | [11] 14.9 µM | [12] 15.1 µM | [13] 18.6 µM | [14] 17 µM | [15] 14.7 µM | [16] 17.2 µM | [20] 24.1 µM | [17] 31.6 µM | [18] 15.3 µM | [19] 19.2 µM

Cc1nc2ccccc2c(=O)n1NC(=O)c1ccc([N+](=O)[O-])cc1
inactive: [1] > 100 µM | [2] > 100 µM | [3] > 100 µM | [4] > 100 µM | [5] > 100 µM | [6] > 100 µM | [7] > 100 µM | [8] > 100 µM | [9] > 100 µM | [10] > 100 µM | [11] > 100 µM | [12] > 100 µM | [13] > 100 µM | [14] > 100 µM | [15] > 100 µM | [16] > 100 µM | [17] > 100 µM | [18] > 100 µM | [19] > 100 µM

O=C(CN1CCOCC1)CC(O)(C(F)(F)F)C(F)(F)F
inactive: [1] > 100 µM | [3] > 100 µM | [4] > 100 µM | [5] 56.4 µM | [6] 48.9 µM | [7] > 100 µM | [8] > 100 µM | [9] > 100 µM | [11] > 100 µM | [12] 47.6 µM | [13] 77.8 µM | [14] 42 µM | [16] > 100 µM | [20] 97.3 µM | [17] > 10 µM | [18] 67.3 µM

COC(=O)c1cc2c(c3c1CC(Cc1ccccc1)C3=O)CCC2 (centres undefined)
inactive: [1] > 100 µM | [2] 91.6 µM | [3] 95.3 µM | [4] > 100 µM | [5] 36.5 µM | [6] > 100 µM | [7] > 100 µM | [8] 52.6 µM | [9] 81.1 µM | [10] 78.2 µM | [11] 69.7 µM | [12] 64.4 µM | [13] 18.4 µM | [14] 68.4 µM | [15] 71.1 µM | [16] 71.8 µM | [17] 74.1 µM | [18] 36.7 µM | [19] 99.3 µM

CC[C@H](C)[C@@H]1OC(=O)CCNC(=O)[C@@H](C)NC(=O)C(C)(C)C(=O)[C@H](C)NC(=O)[C@H](Cc2ccc(OC)cc2)N(C)C(=O)[C@H](C(C)C)N(C)C(=O)CNC(=O)[C@H](CC(C)C)N(C)C(=O)CNC1=O (cyclo(G[NMeL]G[NMeV][NMeY](Me)[X4][dA][βAla][Hmpa(2S,3S)]))
inactive: [1] 3.24 µM | [3] 3.58 µM | [4] 5.92 µM | [17] 1.84 µM
active: [2] 0.254 µM | [5] 0.0568 µM | [6] 0.0625 µM | [7] 0.0252 µM | [8] 0.953 µM | [9] 0.284 µM | [10] 0.367 µM | [11] 0.387 µM | [12] 0.0879 µM | [14] 0.0295 µM | [15] 0.0615 µM | [16] 0.676 µM | [20] 0.222 µM | [18] 0.0715 µM | [19] 0.962 µM

CC(C)(C)C1=C(Br)C(F)(C(C)(C)C)OP1(=O)c1ccccc1 (centres undefined)
inactive: [1] 19.3 µM | [2] 19.6 µM | [3] 21.6 µM | [4] 15.1 µM | [6] 17.5 µM | [7] 16 µM | [8] 16.1 µM | [9] 10.1 µM | [10] 16 µM | [11] 15.8 µM | [12] 11 µM | [13] 18.9 µM | [14] 15.7 µM | [15] 19.1 µM | [16] 16.1 µM | [20] 20.6 µM | [17] 19 µM | [18] 13.8 µM | [19] 16.3 µM

C=C(Cl)[C@](Cl)(CBr)CC[C@@H](Br)C(C)(C)Cl [HALOMON]
inactive: [1] 3.64 µM | [3] 1.27 µM | [4] 17 µM | [5] 14.4 µM | [6] 2.07 µM | [7] 1.84 µM | [8] 1.59 µM | [9] 1.46 µM | [10] 3.23 µM | [12] 12.3 µM | [14] 15.5 µM | [18] 1.5 µM
active: [2] 0.515 µM | [11] 0.822 µM | [13] 0.927 µM | [15] 0.955 µM | [16] 0.147 µM | [17] 0.783 µM | [19] 0.23 µM

COc1ccc(NC(=S)c2ccoc2C)cc1CC(=O)OC(C)C
inactive: [1] 25.1 µM | [2] 43.4 µM | [3] 29 µM | [4] 12.4 µM | [5] 43.9 µM | [6] 36.1 µM | [7] 17.7 µM | [8] 46.2 µM | [9] 30.1 µM | [10] 66.1 µM | [11] 22 µM | [12] 34.1 µM | [13] 29.7 µM | [14] 36.3 µM | [15] 31.8 µM | [16] > 100 µM | [20] 18.2 µM | [17] 16.7 µM | [18] 45.5 µM

c1ccc(-c2cc(-c3ccccc3)nc(-c3ccncc3)c2)cc1
inactive: [1] > 100 µM | [2] > 100 µM | [3] > 100 µM | [4] 58.5 µM | [5] > 100 µM | [6] > 100 µM | [7] > 100 µM | [8] > 100 µM | [9] 16.4 µM | [10] > 100 µM | [11] > 100 µM | [12] 57.1 µM | [13] 96.4 µM | [14] > 100 µM | [16] 18 µM | [20] > 100 µM | [18] > 100 µM | [19] 16.1 µM

O=P1(c2ccccc2)c2ccccc2CCc2ccccc21
inactive: [1] 66.4 µM | [2] 95.9 µM | [3] > 100 µM | [4] > 100 µM | [5] 47.9 µM | [6] > 100 µM | [7] > 100 µM | [8] 57.7 µM | [10] 81.1 µM | [11] > 100 µM | [12] 44.9 µM | [13] 56.1 µM | [14] 37.1 µM | [16] > 100 µM | [20] 49.3 µM | [18] > 100 µM | [19] > 100 µM

CC(=O)Oc1c(C)c2c(O)c3c1C1=C(OCOC1=C(C)C3=O)/C(C)=C/C(C)(O)C(O)C(C)C(O)C1C(=O)OC(C(C)C1O)C(C)(O)/C=C\C=C(C)C(=O)N2 (centres undefined)
inactive: [1] 10.7 µM | [2] 31.8 µM | [3] 70 µM | [4] 18.1 µM | [5] 21.5 µM | [6] 63 µM | [7] 86.5 µM | [8] > 100 µM | [10] 35 µM | [11] 37.1 µM | [12] 32.4 µM | [13] 34.8 µM | [14] 49.1 µM | [15] > 100 µM | [16] 53.7 µM | [20] 34.4 µM | [17] > 100 µM | [18] 69.5 µM | [19] 19.2 µM

CS(=O)(=O)O[C@H]1[C@H](O)c2ccccc2[C@@H]1N=[N+]=[N-]
inactive: [1] > 100 µM | [3] > 100 µM | [4] > 100 µM | [5] > 100 µM | [6] > 100 µM | [7] > 100 µM | [8] > 100 µM | [9] > 100 µM | [10] > 100 µM | [11] > 100 µM | [12] > 100 µM | [13] > 100 µM | [14] > 100 µM | [15] > 100 µM | [16] > 100 µM | [20] > 100 µM | [17] > 100 µM | [18] > 100 µM | [19] > 100 µM
